From patent US6753005B1, “Method for tissue perfusion” (Direct Therapeutics, Inc., priority 1997, dated 2004)
“Also recorded” adds a separate entry of the source. Where two headings read alike, the source gives them in different places. Marks after values point to notes of the source that are not given here.

What was measured:
Walker 256 tumors = conditions: for Tumor Free at Time of Death: number of animals
Description: Tumor fragments derived from serially transplanted Walker 256 tumors were prepared and transplanted subcutaneously into female Harlan Sprague Dawley rats. Once the tumors reached appropriate size, animals were randomized into treatment groups of 5 or 6 animals and an untreated control group of 10 animals. Tumor volume for each animal was calculated using the formula: volume=(I×w2)/2. Observations included daily visual observation of each animal's general health, tumor measurements three times per week and weight every week. These measurements continued until: efficacy was apparent, the animal was terminal, the tumor became necrotic, tumor interfered with the animal's ability to eat or drink, or ten weeks beyond commencement of dosing.
Fifty rats bearing tumors ranging from 550 to 1634 mm^3 were randomly divided into eight treatment groups and 2 control groups. The following treatments were respectively administered to the eight treatment groups: […]

normal canine prostate = assay: Normal canine prostate model, intraprostatic injection
Description: Random-source adult male canines were used in this experiment.
Body surface area (m2) was calculated for each animal using published tables.
On the day of surgery, the animals were preanesthetized with acepromazine (0.22 mg/kg) and atropine (0.05 mg/kg) intramuscularly. General anesthesia was induced with intravenous thiopental sodium (20-25 mg/kg) and, following orotracheal intubation, was maintained with a 0.5-2.0% halothane-oxygen mixture given through a semi-closed circle system. Perioperative antibiotics consisted of intravenous gentamicin (3 mg/kg) on the day of surgery and daily intramuscular gentamicin (3 mg/kg) for seven days following surgery.
In each animal, an 8 French urinary catheter was passed per urethra into the bladder, and the bladder was filled with normal saline. A diagnostic Aloka Echo SSD650 ultrasound machine with a UST 664 5/7.5 MHZ biplanar linear array transrectal probe (Wallingford, Conn.) was used to determine the maximal axial (transverse) width, height, and midline sagittal (longitudinal) length. The length was measured in the midline from the distal most aspect of the apex to the cephalad most portion of the gland. The volume was then determined using the following formula: length×width×½ height. A lower abdominal midline incision was created, and the peritoneal cavity was entered. The bladder and prostate were exposed and the periprostatic fat was carefully dissected off of the base of the gland. Using TRUS imaging of the prostate as well as direct visualization through the peritoneotomy a three inch 20 gauge spinal needle connected to a standard 10-cc luer-lock syringe containing the appropriate aliquot for injection was guided into the base of the right lobe of the prostate. The needle tip was localized within the prostatic parenchyma with ultrasound guidance and appropriately positioned.
Animals were randomly divided into subgroups. Animals A1 and A2 received a volume of dehydrated ethanol equal to 100% of the measured prostate volume while the remaining animals received a volume of 98% dehydrated ethanol equal to 50% of the total gland volume as determined by TRUS imaging. The animals received escalating doses of Carmustine dissolved in dehydrated ethanol: A1 and A2 2 mg/ml; B1 and B2, 5 mg/ml; C1 and C2 12.5 mg/ml; D1 and D2 18 mg/ml; and E1 and E2, 25 mg/ml. All animal subgroups were injected on separate days under general anesthesia through a midline peritoneotomy approach using TRUS guidance for needle placement. The needle was initially positioned at the ventral aspect of the apex of the gland and then withdrawn from apex to base during the injection. The needle was then repositioned toward the dorsal aspect of the gland at the apex and withdrawn toward the base during the injection so that as much of the parenchyma could be covered as possible.
Fourteen days following injection all animals underwent repeat TRUS imaging of the prostate gland under general anesthesia and were then euthanized by exsanguination under deep general anesthesia. The bladders and prostates were excised enbloc and fixed in formalin. If there was any evidence of perirectal inflammation or suspicion of pathology a section of the rectum was removed for pathologic examination. After adequate tissue fixation in formalin, the prostate glands were step sectioned and the volume of the prostate parenchyma affected (cm3) was calculated and quantitated based on the measured length, height and thickness of individual step sections of the gland. The volumes were then added together resulting in a quantification of the total parenchymal volume affected on a prostate gland for prostate gland basis. The tissue was then submitted for histopathologic interpretation.

normal rat liver = assay: Normal rat liver model, intrahepatic injection; type: in vivo; conditions: for Clinical Signs / Gross Findings (liver lesions) / Survival: 2 rats; for Gross Findings (liver lesions): 2 weeks; for Survival: sacrifice 2 weeks
Description: 54 male Sprague-Dawley rats 250-300 g in body weight were caged in groups of 2 by treatment group, in standard animal housing facilities and given free access to food and water. Prior to surgery, animals received 0.2 ml intramuscular injection of ketamine and xylazine (30 mg/kg and 4 mg/kg respectively). Rats were anesthetized and fixed on a restraining board. The right upper quadrant of the abdomen was shaved and prepped with betadine solution. A lateral incision approximately 1 cm in length was made 2 cm to the right of the abdominal mid-line and 2 cm below the last rib on the right side and the liver exposed. Under direct visual observation, the solution was injected into the liver slowly over a period of about 2 minutes, using a Hamilton microliter syringe (702) equipped with a 27 gauge needle. The needle was withdrawn and the abdominal incision closed using 4-0 plain gut to seal the peritoneum and skin clips to close the skin. Observations of each animal were made hourly for 4 hours during the day of surgery and daily thereafter for two weeks. At two weeks the animals were sacrificed and their livers examined grossly for lesions at the site of injection.

[1] = Group VI: carmustine 3.3 mg/ml in absolute ethanol, 100% tumor volume
[2] = all animals, 14 days after injection
[3] = carmustine 5 mg/ml ethanol, 50% of prostate volume, prostate volume 8.42, 14 days
[4] = carmustine 5 mg/ml ethanol, 50% of prostate volume, prostate volume 9.8, 14 days
[5] = carmustine 12.5 mg/ml ethanol, 50% of prostate volume, prostate volume 4.36, 14 days
[6] = carmustine 12.5 mg/ml ethanol, 50% of prostate volume, prostate volume 20.16, 14 days
[7] = carmustine 18 mg/ml ethanol, 50% of prostate volume, prostate volume 27.75, 14 days
[8] = carmustine 18 mg/ml ethanol, 50% of prostate volume, prostate volume 37.2, 14 days
[9] = carmustine 25 mg/ml ethanol, 50% of prostate volume, prostate volume 22.14, 14 days
[10] = 100 μl ethanol + 1.25 mg carmustine (12.5 mg/ml)
[11] = 100 μl ethanol + 2.5 mg carmustine (25 mg/ml)
[12] = 100 μl ethanol + 5 mg carmustine (50 mg/ml)
[13] = 100 μl ethanol + 10 mg carmustine (100 mg/ml)
[14] = 100 μl ethanol, 12.5-50 mg/ml carmustine

Compound: O=NN(CCCl)C(=O)NCCCl [Carmustine, carmustine]
- selective effect on tumor cells (Walker 256 tumors; 100% ethanol and 3.3 mg/ml carmustine): selectively kill tumor cells
- Complete Regressors/Total (Walker 256 tumors; [1]): 4/5
- local findings in the area of the tumor (Walker 256 tumors; [1]): no evidence of scar, hair loss or residual redness
- Mean Days to Tumor Size 5000 mm^3 after treatment (Walker 256 tumors; Group VI: carmustine 3.3 mg/ml in absolute ethanol, 100% tumor volume, 2 animals): 29.5 days
- Tumor Free at Time of Death (Walker 256 tumors; [1]): 3
- Tumor Free at Time of Death (Walker 256 tumors; Group VI: carmustine 3.3 mg/ml in absolute ethanol, 100% tumor volume, listed as carmustine): three
- relation of carmustine concentration to volume of tissue affected (normal canine prostate; 2-25 mg/ml carmustine in dehydrated ethanol, 14 days): highest concentrations of carmustine were associated with the largest volumes of tissue affected
- rectal injuries (normal canine prostate; all animals): no rectal injuries
- findings in prostatic parenchyma (TRUS and step sections) (normal canine prostate; [2]): hemorrhagic and coagulative necrosis
- findings in the urethra (normal canine prostate; [2]): submucosal hemorrhage, mucosal erosion and inflammation
- Periprostatic Tissue Involvement (normal canine prostate; carmustine 5 mg/ml ethanol, 50% of prostate volume, prostate volume 8.42): Marked fat necrosis
- Volume Affected Left (normal canine prostate; [3]): 0.68 cc^3
- Volume Affected PU (periurethral) (normal canine prostate; [3]): 0 cc^3
- Volume Affected Right (normal canine prostate; [3]): 1.73 cc^3
- Periprostatic Tissue Involvement (normal canine prostate; carmustine 5 mg/ml ethanol, 50% of prostate volume, prostate volume 9.8): Cystic necrosis R
- Volume Affected Left (normal canine prostate; [4]): 1.61 cc^3
- Volume Affected PU (periurethral) (normal canine prostate; [4]): 2.51 cc^3
- Volume Affected Right (normal canine prostate; [4]): 0.85 cc^3
- Periprostatic Tissue Involvement (normal canine prostate; carmustine 12.5 mg/ml ethanol, 50% of prostate volume, prostate volume 4.36): Moderate fat necrosis
- Volume Affected PU (periurethral) (normal canine prostate; [5]): 0.62 cc^3
- Volume Affected left + right (normal canine prostate; [5]): 1.8 cc^3
- Periprostatic Tissue Involvement (normal canine prostate; carmustine 12.5 mg/ml ethanol, 50% of prostate volume, prostate volume 20.16): Minimal fat necrosis
- Volume Affected Left (normal canine prostate; [6]): 1.8 cc^3
- Volume Affected PU (periurethral) (normal canine prostate; [6]): 0 cc^3
- Volume Affected Right (normal canine prostate; [6]): 1.4 cc^3
- Periprostatic Tissue Involvement (normal canine prostate; carmustine 18 mg/ml ethanol, 50% of prostate volume, prostate volume 27.75): Marked fat necrosis
- Volume Affected Left (normal canine prostate; [7]): 8.35 cc^3
- Volume Affected PU (periurethral) (normal canine prostate; [7]): 1.2 cc^3
- Volume Affected Right (normal canine prostate; [7]): 12.31 cc^3
- Periprostatic Tissue Involvement (normal canine prostate; carmustine 18 mg/ml ethanol, 50% of prostate volume, prostate volume 37.2): Marked fat necrosis
- Volume Affected Left (normal canine prostate; [8]): 11.76 cc^3
- Volume Affected PU (periurethral) (normal canine prostate; [8]): 3.84 cc^3
- Volume Affected Right (normal canine prostate; [8]): 9.73 cc^3
- Periprostatic Tissue Involvement (normal canine prostate; carmustine 25 mg/ml ethanol, 50% of prostate volume, prostate volume 22.14): Mild fat necrosis
- Volume Affected Left (normal canine prostate; [9]): 7.5 cc^3
- Volume Affected PU (periurethral) (normal canine prostate; [9]): 0 cc^3
- Volume Affected Right (normal canine prostate; [9]): 4.8 cc^3
- Periprostatic Tissue Involvement (normal canine prostate; carmustine 25 mg/ml ethanol, 50% of prostate volume, prostate volume 32.64): Large pelvic abscess
- Volume Affected left + right + periurethral (normal canine prostate; carmustine 25 mg/ml ethanol, 50% of prostate volume, prostate volume 32.64, 14 days): 32.64** cc^3
- Clinical Signs (normal rat liver; [10]): ANAS
- Gross Findings (liver lesions) (normal rat liver; [10]): no lesion
- Survival (normal rat liver; [10]): term
- Gross Findings (liver lesions) (normal rat liver; [11]): very small lesions
- Survival (normal rat liver; [11]): term
- Gross Findings (liver lesions) (normal rat liver; [12]): small lesions
- Survival (normal rat liver; [12]): term
- Clinical Signs (normal rat liver; [13]): Less active &
- Gross Findings (liver lesions) (normal rat liver; [13]): large areas of tissue destruction; also recorded: fice. Large areas
- Survival (normal rat liver; [13]): term
- Clinical signs at sacrifice (normal rat liver; [14]): appeared normal at sacrifice
- gross examination of the liver (normal rat liver; [14]): no or small lesions
- toxic effects in normal liver tissue (normal rat liver; solutions containing carmustine up to 50 mg/ml): no toxic effects
